Source: patent US9709557B2, “Anthraquinone based near IR emitting compounds and uses thereof” (LIFE TECHNOLOGIES CORPORATION, priority 2008, dated 2017)

Columns and labels:
Live Jurkat cells [1] = test: DNA staining of live cells and cell cycle analysis using flow cytometry (Examples 42, 43); format: cell-based, human
Method: Live Jurkat cells are suspended at 5×10^5 cells/ml in each RPMI media with 10% FBS. Compound 19 is added to each of one mL cell suspensions at concentrations 5 μM, 10 μM, and 20 μM, and then incubated at 37° C. for 30 minutes while protected from light. Cells are run through the Becton Dickinson (BD) LSRII Flow Cytometer. Forward Scatter (FS) vs Side Scatter (SS) dual parameter plot is used to gate main cell population. Fluorescence is collected using […]: the 488 nm excitation laser with 780/60 bandpass emission filter, and using the 633 nm excitation laser with 780/60 bandpass emission filters, collecting 10,000 events at flow rate of ˜200 events/second. The data is further analyzed using MODFIT LT Flow Cytometry Modeling Software from Verity Software House, Inc. to look at ratio of G2/G1 and the % CV of G1 phase. […] Typical DNA content cell cycle histograms indicate G0G1 phase, S phase, and G2M phase, as obtained on the live cell gate, with all concentrations of the compound.
Live Jurkat cells suspended in RPMI media+10% FBS were stained with 5 μM, 10 μM, and 20 μM Compound 20 and analyzed with flow cytometry, as described in Example 42.

HeLa and U2OS cells = format: cell-based
Method: HeLa and U2OS cells were stained with DRAQ5, Hoechst 33342, mitoxantrone, and Compound 9 over a range of concentrations to evaluate the effect of the tested DNA stains on cell proliferation over time. HeLa and U2OS cells were plated at 3000 cells/well and allowed to recover overnight before proceeding with dye incubations. Cells were incubated with 0, 1, 5 or 10 μM Compound 9, Hoechst 33342, mitoxantrone, and DRAQ5 for 30 minutes at culture conditions in DPBS with glucose, washed and then placed back into media at culture conditions. Plates were stained with 100 nM YOYO-1 (Invitrogen Corporation) before being fixed and stained with 1:1000 Hoechst 33342 (total cell number) at 24, 48 and 72 hours post dye incubation. Cells were imaged with the ArrayScan VTI immediately following staining and fixation. Data obtained were from repetitions of 4 wells/condition with 10 images taken per well.

Live Jurkat cells [2] = test: Comparison of DNA stains on cell viability (Example 44); format: cell-based; conditions: for % Dead Cells: ethidium homodimer-1
Method: Live Jurkat cells are suspended at 5×10^5 cells/ml in complete RPMI media with 10% FBS. Four aliquots of 10 ml each of the cell suspension are made. A final concentration of 5 μM Hoechst 33342 (Invitrogen Corporation) is added to one aliquot, a final concentration of 5 μM DRAQ5 (Biostatus Limited, UK) is added to one aliquot, a final concentration of 5 μM Compound 9 is added to one aliquot, and one aliquot remains untreated as a control. All four aliquots are placed in a 37° C. waterbath for 30 minutes in protected from light. After the incubation, all cell suspensions are centrifuged, the cells are pelleted and the supernatant discarded. To each aliquot, 5 ml media is added. Four culture flasks are prepared by adding 35 ml media to each. One 5 ml aliquot of cells is added to one flask for each on the four cell suspensions aliquots. The flasks are placed in a 37° C. incubator with 5% CO2 in the dark for 72 hours. Each flask of cells is then gently mixed and cell suspension is removed for testing. The cell concentration and image is performed using the Cellometer instrument from Nexcelom. Percentage and absolute cell counts of live and dead cells for each treatment are determined using the LIVE/DEAD Viability/Cytotoxicity Kit (Invitrogen Corporation, Carlsbad, Calif.) with COUNTBRIGHT Absolute Counting Beads (Invitrogen Corporation). This involves adding one ml cell suspension to a 12×75 mm test tube and adding 2 μl of a 50 μM calcein AM solution to identify living cells and 4 μl of a 2 mM ethidium homodimer-1 solution to identify dead cells. The cell suspension is mixed and incubated for 20 minutes at room temperature protected from light. After the end of the incubation, 50 μl of well mixed COUNTBRIGHT absolute counting beads are added to each test tube. Each sample is run through the Becton Dickinson (BD) LSRII Flow Cytometer. Forward Scatter (FS) versus Side Scatter (SS) dual parameter plot is used to gate main cell population, and a separate gate is made around the bead population. Fluorescence is collected using 488 nm excitation laser with 530/30 bandpass and 610/20 bandpass emission filters. Markers on a dual parameter plot of calcein fluorescence versus ethidium homodimer-1 fluorescence is used to obtain percent of cells which are living and dead, as well as number of cell events recorded. By using the COUNTBRIGHT absolute counting beads assay, the absolute number of living and dead cells is calculated by using the equation: A/B×C/D=concentration of cells/μL (A=number of cell events, B=number of bead events, C=assigned bead count, D=volume of the sample in μl).

Jurkat cells = test: Comparison of DNA stains for staining live cells, post-sort viability and growth (Example 45); format: cell-based; conditions: 5 μM
Method: Jurkat cells were suspended at 5×10^5 cells/ml in complete RPMI media with 10% FBS and stained with either 5 μM Compound 9, 5 μM Hoechst 33342, or 5 μM DRAQ5 for 30 minutes at 37° C. protected from light. A control sample was also prepared with no dye treatment. Cells were washed and resuspended at 1×10^7 cells/ml in Complete RPMI+10% FBS media for sorting. Approximately 2 million Jurkat cells were sorted for each treatment by gating on the main cell population by scatter using a BD FACS Aria cell sorter. Cells were washed and plated at 1×10^5 cells/ml in complete media and grown at 37 C with 5% CO2. Cell Viability was assayed using the LIVE/DEAD Viability/Cytotoxicity Kit at 1, 2, and 3 days post sort (as described in Example 44). Brightfield images of cell growth after 8 days cell growth were collected. […] The percent of live cells decreased similarly in both Compound 9 and Hoechst 33342 treatments.

[3] = 20 μM, RPMI media+10% FBS, blue 488 laser, 780/60 emission
[4] = 20 μM, RPMI media+10% FBS, red 633 nm laser, 780/60 emission
[5] = 5 μM dye 30 min 37° C., then 72 hours culture

Question: How did the “% CV of G1-phase” value (Live Jurkat cells [1]; [3]) turn out when `CN(C)CCNC(=O)CNc1ccc(O)c2c1C(=O)c1c(N)ccc(O)c1C2=O` [Compound 19] was run?
Answer: 8.0%

Question: And the G2/G1 ratio (Live Jurkat cells [1]; [3])?
Answer: 1.86

Question: What about the “% CV of G1-phase” value (Live Jurkat cells [1]; [4]) of the same compound?
Answer: 6.43%

Question: And the G2/G1 ratio (Live Jurkat cells [1]; [4])?
Answer: 1.83

Question: What about the “% CV of G1-phase” value (Live Jurkat cells [1]; 5, 10, 20 μM, MODFIT analysis) of the same compound?
Answer: < 8%

Question: What does the source list for `CN(C)CCNC(=O)CNc1ccc(N)c2c1C(=O)c1c(O)ccc(O)c1C2=O` [Compound 20]?
Answer: % CV of G1-phase (Live Jurkat cells [1]; [4]): 6.41%; G2/G1 ratio (Live Jurkat cells [1]; [4]): 1.84

Question: Which results are given for `CN(C)CCNc1ccc(O)c2c1C(=O)c1c(O)ccc(NCCN(C)C)c1C2=O` [DRAQ5]?
Answer: membrane permeability indicated by YOYO-1 (HeLa and U2OS cells): high membrane permeability; % Dead Cells (Live Jurkat cells [2]; [5]): 95.7%

Question: With `CCOc1ccc(-c2nc3ccc(-c4nc5ccc(N6CCN(C)CC6)cc5[nH]4)cc3[nH]2)cc1` [Hoechst 33342] as the compound, how does the “post-sort viability / cytotoxicity” value (Jurkat cells; 30 min 37° C., sorted, 1, 2 and 3 days post sort) read?
Answer: very similar in post-sort viability, but less than non-stained control cells

Question: What about the “cell growth after sort” value (Jurkat cells; day 3 and 8 days post sort) of the same compound?
Answer: beginning to divide again

Question: And the “Cell Count (Cellometer)” value (Live Jurkat cells [2]; [5])?
Answer: 2.6 × 10^5 cells/mL

Question: And the “Cell Count (Flow Cytommetry)” value (Live Jurkat cells [2]; [5])?
Answer: 0.9 × 10^5 cells/mL

Question: And the “% Living Cells” value (Live Jurkat cells [2]; 5 μM dye 30 min 37° C., then 72 hours culture, calcein AM)?
Answer: 57.7%

Question: What about the “% Dead Cells” value (Live Jurkat cells [2]; [5]) of the same compound?
Answer: 39.3%

Question: What about the “effect of treatment on cell viability” value (Live Jurkat cells [2]; 5 μM, 72 hours) of the same compound?
Answer: maintained a majority of cells as living
